The values below come from US20130245084A1, “CALCIUM-SENSING RECEPTOR-ACTIVE COMPOUNDS” (LEO PHARMA A/S, priority 2010, published 2013).

Structures are written as SMILES.

For this assay, the target named is T1, human CaSR (Homo sapiens, UniProt P41180).
T1 sequence (P41180 20-1078): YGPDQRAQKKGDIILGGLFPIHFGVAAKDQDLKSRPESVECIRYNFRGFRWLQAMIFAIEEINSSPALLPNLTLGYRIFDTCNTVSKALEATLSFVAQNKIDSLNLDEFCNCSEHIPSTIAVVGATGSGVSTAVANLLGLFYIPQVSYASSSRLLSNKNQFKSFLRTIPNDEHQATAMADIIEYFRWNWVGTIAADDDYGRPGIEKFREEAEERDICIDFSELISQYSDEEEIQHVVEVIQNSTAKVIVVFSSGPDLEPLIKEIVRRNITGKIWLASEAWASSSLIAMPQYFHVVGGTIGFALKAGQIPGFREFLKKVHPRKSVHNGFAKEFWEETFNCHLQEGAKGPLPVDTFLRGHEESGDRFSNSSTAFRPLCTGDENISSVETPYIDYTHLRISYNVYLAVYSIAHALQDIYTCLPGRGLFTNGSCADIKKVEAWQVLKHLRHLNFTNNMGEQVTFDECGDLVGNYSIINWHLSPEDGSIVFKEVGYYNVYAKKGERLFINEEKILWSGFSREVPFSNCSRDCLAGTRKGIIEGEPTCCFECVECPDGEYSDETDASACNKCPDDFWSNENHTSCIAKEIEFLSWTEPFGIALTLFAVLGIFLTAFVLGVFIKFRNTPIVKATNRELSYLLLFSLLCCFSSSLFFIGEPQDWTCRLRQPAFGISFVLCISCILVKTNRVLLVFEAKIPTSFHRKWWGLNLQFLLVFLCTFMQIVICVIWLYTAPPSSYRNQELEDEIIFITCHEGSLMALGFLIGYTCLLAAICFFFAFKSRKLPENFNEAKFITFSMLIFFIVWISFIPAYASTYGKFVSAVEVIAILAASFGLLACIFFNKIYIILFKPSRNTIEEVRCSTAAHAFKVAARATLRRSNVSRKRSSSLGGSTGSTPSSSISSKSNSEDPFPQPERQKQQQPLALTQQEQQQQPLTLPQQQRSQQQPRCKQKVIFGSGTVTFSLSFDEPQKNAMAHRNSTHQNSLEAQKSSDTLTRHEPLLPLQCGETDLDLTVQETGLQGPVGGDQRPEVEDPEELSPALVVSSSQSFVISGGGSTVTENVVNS
The assay is described as follows: Functional whole cell assay (modulation of human CaSR), IP1 accumulation in CHO-K1 cells. In kind it is cell-based. To be noted: CHO-K1 cells stably expressing human CaSR, final Ca2+ 1.9 mM, IP1 HTRF; concentration giving 50% of maximum agonistic response. From the text:
The assay investigates a compound's functional ability to act as a biological positive modulator on the human CaSR. Activation of the receptor expressed on CHO-K1 cells is detected through the G alpha q pathway, the activation of phospholipase C and the accumulation of intracellular inositol phosphate (IP) as described earlier [Sandrine Ferry, Bruno Chatel, Robert H. Dodd, Christine Lair, Danielle Gully, Jean-Pierre Maffrand, and Martial Ruat. Effects of Divalent Cations and of a Calcimimetic on Adrenocorticotropic Hormone Release in Pituitary Tumor Cells. Biochemical and biophysical research Communications 238, 866-873 (1997)]. The human CaSR is stably expressed on a CHO-K1 cell clone, stimulated with a basal level of calcium and challenged with the tested compound. The level of IP1 is determined using the IP-One Terbium htrf kit (Cisbio, France). CHO-K1 cells not transfected with the CaSR fail to elicit an IP1 response upon calcium and/or compound stimulation.
The ORF coding for the human CaSR (genebank: NM_000388) was acquired from Invitrogen Corp, USA and subsequently cloned into the mammalian expression vector pCDA3.1.
CHO-K1 cells were transfected using Lipofectamine according to manufacturer's protocol (400.000 cells/well were seeded in a 6-well plate and transfected after 24 hours using 2 μg DNA and 5 μl lipofectamine). After another 24 hours the cells were detached, seeded and subjected to 1 mg/ml of G-418. Following 7 days growth single clones were picked, the CaSR expression evaluated using the 5C10 antibody against CaSR, the clones with the highest expression were selected and tested for functional response. The preferred clone was cultured according to standard procedures described in ATCC (American Type Culture Collection) protocols for CHO-K1 with the addition of 500 μg/ml G-418.
On the assay day, cells were thawed, harvested and resuspended to 4*10^6 cells/ml in stimulation buffer (containing: Hepes 10 mM, MgCl2 0.5 mM, KCl 4.2 mM, NaCl 146 mM, glucose 5.5 mM, LiCl 50 mM, BSA 0.5% at pH 7.4). Ten μl cell solution was pipetted into wells of a white 384-well plate (Perkin Elmer Optiplate) containing 2 μl compound diluted in assay buffer (containing: Hepes 10 mM, MgCl2 0.5 mM, KCl 4.2 mM, NaCl 146 mM, glucose 5.5 mM, LiCl 50 mM, CaCl2 11.4 mM at pH 7.4), resulting in a final Ca^2+ concentration of 1.9 mM. After compound stimulation for 1 hour at 37° C. and 15 min at room temperature, 10 ul of IP-One assay detection reagent (prepared as described by the IP-One assay kit manufacturer) was added and the plate was incubated for another 1 hour at room temperature. Finally the plate was read using a Perkin Elmer EnVision, according to the protocol supplied by the IP-One assay kit manufacturer. The FRET ratio was calculated by dividing the 665 nm emission signal with that of the 615 nm.
The molar concentration of a compound that produces 50% of the maximum agonistic response (the […] value) is calculated according to the equation “General sigmoidal curve with Hill slope, a to d” (Equation 1). This model describes a sigmoidal curve with an adjustable baseline. The equation can be used to fit curves where response is either increasing or decreasing with respect to the independent variable, X.
y=(a−d)/(1+(x/c)̂b)+d Equation 1.
A general note: In TR-FRET formats the signal depends on donor and acceptor labels being close together.
Usually EC50 stands for the concentration that produces a half-maximal response. A lower EC50 goes with an effect from little substance. For the molecule `COc1cc([C@@H](C)N[C@H]2CC[C@@H](c3ccc(C(=O)NCCNC(=O)c4nc[nH]n4)cc3)C2)ccc1F` [Compound 101, N-[2-[[4-[(1R,3S)-3-[[(1R)-1-(4-Fluoro-3-methoxy-phenyl)ethyl]-amino]cyclopentyl]benzoyl]amino]ethyl]-1H-1,2,4-triazole-3-carboxamide], the half-maximal effective concentration (EC50) is less than 200 nM. `COc1cc([C@@H](C)N[C@H]2CC[C@@H](c3ccc(C(=O)NCCNC(=O)C(O)CO)cc3)C2)ccc1F` (stereo partly drawn) [Compound 102, N-[2-(2,3-Dihydroxypropanoylamino)ethyl]-4-[(1R,3S)-3-[[(1R)-1-(4-fluoro-3-methoxy-phenyl)ethyl]amino]cyclopentyl]benzamide] returned a concentration for a half-maximal effect (EC50) of 200 to 1000 nM.

Regarding `COc1cc([C@@H](C)N[C@H]2CC[C@@H](c3ccc(C(=O)NCCNC(=O)CO)cc3)C2)ccc1F` [Compound 103, 4-[(1R,3S)-3-[[(1R)-1-(4-Fluoro-3-methoxy-phenyl)ethyl]amino]cyclopentyl]-N-[2-[(2-hydroxyacetyl)amino]ethyl]benzamide], the concentration giving a half-maximal response (EC50) is less than 200 nM. `COc1cc([C@@H](C)N[C@H]2CC[C@@H](c3ccc(C(=O)NCCNC(=O)C(N)=O)cc3)C2)ccc1F` [Compound 104, N-[2-[[4-[(1R,3S)-3-[[(1R)-1-(4-Fluoro-3-methoxy-phenyl)ethyl]amino]cyclopentyl]benzoyl]amino]ethyl]oxamide] gave a 50% effective concentration (EC50) of less than 200 nM.

As for `COc1cc([C@@H](C)N[C@H]2CC[C@@H](c3ccc(C(=O)NCCNC(=O)CS(C)(=O)=O)cc3)C2)ccc1F` [Compound 105, 4-[(1R,3S)-3-[[(1R)-1-(4-Fluoro-3-methoxy-phenyl)ethyl]amino]-cyclopentyl]-N-[2-[(2-methylsulfonylacetyl)amino]ethyl]benzamide], the concentration for a half-maximal effect (EC50) was less than 200 nM.
